Data taken from US8921376B2, “Pyrrolopyridines useful as inhibitors of protein kinase” (Vertex Pharmaceuticals Incorporated, priority 2005, dated 2014).

Assays:
Assay type in all cases: biochemical
JAK3 = target: T1, JAK3 (Homo sapiens, UniProt P52333); test: JAK3 inhibition assay (33P incorporation into poly(Glu)4Tyr)
T1 sequence (P52333 1-1124): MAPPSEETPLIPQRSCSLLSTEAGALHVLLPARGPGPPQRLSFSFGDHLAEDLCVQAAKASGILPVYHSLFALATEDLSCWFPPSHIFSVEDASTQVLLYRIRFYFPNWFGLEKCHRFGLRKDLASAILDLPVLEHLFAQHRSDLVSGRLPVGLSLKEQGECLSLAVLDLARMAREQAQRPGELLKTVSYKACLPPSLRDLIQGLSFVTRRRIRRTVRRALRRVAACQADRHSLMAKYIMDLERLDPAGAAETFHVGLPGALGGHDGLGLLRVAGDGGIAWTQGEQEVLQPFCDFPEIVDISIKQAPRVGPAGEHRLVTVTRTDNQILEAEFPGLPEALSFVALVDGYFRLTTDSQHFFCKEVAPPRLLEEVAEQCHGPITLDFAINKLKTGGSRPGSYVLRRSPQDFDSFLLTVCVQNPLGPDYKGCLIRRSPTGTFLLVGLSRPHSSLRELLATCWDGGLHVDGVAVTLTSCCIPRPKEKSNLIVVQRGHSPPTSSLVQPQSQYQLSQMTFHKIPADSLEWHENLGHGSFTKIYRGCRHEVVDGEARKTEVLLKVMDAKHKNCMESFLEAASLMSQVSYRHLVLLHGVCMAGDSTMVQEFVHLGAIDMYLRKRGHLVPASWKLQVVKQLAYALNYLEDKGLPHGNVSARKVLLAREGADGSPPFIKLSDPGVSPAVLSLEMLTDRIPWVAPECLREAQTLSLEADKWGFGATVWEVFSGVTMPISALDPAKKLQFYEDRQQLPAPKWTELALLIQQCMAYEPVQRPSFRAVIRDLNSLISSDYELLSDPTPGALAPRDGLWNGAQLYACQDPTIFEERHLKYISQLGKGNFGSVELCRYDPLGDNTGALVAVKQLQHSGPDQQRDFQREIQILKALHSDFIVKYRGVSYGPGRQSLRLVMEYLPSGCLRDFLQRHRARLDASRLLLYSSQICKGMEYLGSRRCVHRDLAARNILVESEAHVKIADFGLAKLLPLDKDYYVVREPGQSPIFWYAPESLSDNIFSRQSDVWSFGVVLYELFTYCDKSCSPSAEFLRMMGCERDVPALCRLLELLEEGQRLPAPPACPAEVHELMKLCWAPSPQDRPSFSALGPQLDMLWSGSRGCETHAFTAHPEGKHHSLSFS
Outline: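 Human JAK3 at 1 nM phosphorylated 1 μM poly(Glu)4Tyr using 5 μM [33P]ATP in HEPES pH 7.4 buffer with MgCl2, DTT and BSA. Reactions ran 20 min at 25° C. and were stopped with TCA. 33P incorporation was measured by scintillation after glass-fiber filter capture.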

JAK2 = JAK2 (Homo sapiens, UniProt O60674); test: JAK2 inhibition assay (as Example 3 with JAK-2 enzyme)
Outline: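 Radiometric JAK2 kinase assay: poly(Glu)4Tyr substrate at final 15 μM, ATP at final 12 μM with [33P]; buffer 100 mM HEPES pH 7.4, 1 mM DTT, 10 mM MgCl2, 25 mM NaCl, 0.01% BSA. 20 min at 25 °C, TCA-stopped, 33P incorporation counted after filter capture.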

ROCK I = ROCK I (Homo sapiens, UniProt Q13464); test: ROCK-I inhibition assay (radioactive enzyme assay, MBP substrate)
Outline: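 Human ROCK at 5 nM phosphorylated 27 μM myelin basic protein with 13 μM [γ-33P]ATP (final) in HEPES pH 7.5, MgCl2, NaCl, DTT and 1.5% DMSO. Reactions ran 2 h at room temperature before TCA quench and filter-plate scintillation counting. After background subtraction, data were fit to give Ki(app).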

[1] = Table 6, enzyme inhibition data (Ki)
[2] = enzyme inhibition, Ki(app), Table 5

ROCK I, sequence (Q13464 whole entry): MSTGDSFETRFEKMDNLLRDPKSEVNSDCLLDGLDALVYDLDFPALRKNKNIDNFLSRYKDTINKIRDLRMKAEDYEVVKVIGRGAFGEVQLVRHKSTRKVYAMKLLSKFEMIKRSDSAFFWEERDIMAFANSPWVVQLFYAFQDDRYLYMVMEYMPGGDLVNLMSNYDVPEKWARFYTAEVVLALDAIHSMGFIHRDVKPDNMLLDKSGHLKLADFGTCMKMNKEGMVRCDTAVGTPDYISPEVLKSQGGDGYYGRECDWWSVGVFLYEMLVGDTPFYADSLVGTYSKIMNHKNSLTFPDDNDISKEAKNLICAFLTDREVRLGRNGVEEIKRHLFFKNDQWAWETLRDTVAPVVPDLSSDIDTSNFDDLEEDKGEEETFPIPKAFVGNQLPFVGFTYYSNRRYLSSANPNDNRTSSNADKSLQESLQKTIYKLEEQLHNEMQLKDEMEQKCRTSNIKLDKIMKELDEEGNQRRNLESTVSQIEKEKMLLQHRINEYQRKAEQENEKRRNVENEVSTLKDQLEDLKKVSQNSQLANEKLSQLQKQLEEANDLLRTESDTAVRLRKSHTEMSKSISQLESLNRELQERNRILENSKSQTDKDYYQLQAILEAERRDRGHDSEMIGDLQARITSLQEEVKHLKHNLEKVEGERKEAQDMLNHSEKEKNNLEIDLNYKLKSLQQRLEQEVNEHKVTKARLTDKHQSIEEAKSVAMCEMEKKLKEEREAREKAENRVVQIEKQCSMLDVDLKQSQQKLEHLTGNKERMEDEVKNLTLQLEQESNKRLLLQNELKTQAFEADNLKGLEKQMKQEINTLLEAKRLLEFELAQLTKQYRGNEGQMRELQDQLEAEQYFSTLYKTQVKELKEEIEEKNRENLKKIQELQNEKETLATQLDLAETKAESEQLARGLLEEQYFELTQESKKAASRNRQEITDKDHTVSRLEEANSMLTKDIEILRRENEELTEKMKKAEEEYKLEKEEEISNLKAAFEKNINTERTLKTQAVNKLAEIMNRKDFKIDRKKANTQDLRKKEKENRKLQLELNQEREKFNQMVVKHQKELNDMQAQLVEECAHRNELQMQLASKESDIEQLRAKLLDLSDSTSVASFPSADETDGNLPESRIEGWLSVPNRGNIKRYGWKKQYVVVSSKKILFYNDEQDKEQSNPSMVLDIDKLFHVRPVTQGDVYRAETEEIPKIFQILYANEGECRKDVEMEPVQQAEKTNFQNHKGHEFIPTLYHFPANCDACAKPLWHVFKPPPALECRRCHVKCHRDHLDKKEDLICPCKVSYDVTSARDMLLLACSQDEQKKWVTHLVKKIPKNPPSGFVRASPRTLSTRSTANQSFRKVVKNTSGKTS
JAK2, sequence (O60674 whole entry): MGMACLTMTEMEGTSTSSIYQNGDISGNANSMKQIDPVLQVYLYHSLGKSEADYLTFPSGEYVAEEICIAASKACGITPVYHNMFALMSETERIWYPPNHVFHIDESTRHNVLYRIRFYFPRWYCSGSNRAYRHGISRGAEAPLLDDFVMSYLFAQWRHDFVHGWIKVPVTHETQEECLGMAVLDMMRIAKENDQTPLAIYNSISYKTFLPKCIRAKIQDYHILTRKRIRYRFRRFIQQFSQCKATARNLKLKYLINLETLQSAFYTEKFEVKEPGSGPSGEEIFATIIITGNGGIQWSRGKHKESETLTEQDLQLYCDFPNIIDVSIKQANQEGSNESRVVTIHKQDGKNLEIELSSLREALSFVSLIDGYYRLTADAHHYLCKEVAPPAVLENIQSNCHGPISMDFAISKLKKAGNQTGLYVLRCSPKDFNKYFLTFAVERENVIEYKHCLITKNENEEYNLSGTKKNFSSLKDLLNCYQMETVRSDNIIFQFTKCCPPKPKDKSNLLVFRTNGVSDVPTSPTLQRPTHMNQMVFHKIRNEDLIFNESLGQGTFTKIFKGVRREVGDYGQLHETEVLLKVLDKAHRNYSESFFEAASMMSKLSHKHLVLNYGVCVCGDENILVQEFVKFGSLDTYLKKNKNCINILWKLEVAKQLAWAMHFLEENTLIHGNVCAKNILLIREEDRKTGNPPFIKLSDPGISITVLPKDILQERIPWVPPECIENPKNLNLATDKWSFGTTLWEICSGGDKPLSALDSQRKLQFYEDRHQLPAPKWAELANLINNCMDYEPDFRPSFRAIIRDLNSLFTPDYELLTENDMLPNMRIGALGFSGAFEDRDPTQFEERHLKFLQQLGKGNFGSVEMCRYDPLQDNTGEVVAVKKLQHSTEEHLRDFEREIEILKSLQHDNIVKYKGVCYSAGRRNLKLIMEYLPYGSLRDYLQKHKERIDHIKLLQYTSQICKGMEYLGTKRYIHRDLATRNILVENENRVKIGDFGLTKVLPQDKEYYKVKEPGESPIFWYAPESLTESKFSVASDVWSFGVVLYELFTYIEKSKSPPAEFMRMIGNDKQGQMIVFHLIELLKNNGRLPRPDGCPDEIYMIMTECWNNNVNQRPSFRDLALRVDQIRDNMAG

Ki (JAK3; [1]) [nM] | Ki (JAK2; [1]) [nM] | Ki (ROCK I; [1]) [nM] | Ki (JAK3; enzyme inhibition, Table 5) [nM] | Ki (JAK2; enzyme inhibition, Table 5) [nM] | Ki (ROCK I; [2]) [nM] | SMILES
< 500 | < 500 | < 500 |  |  |  | CN(Cc1cccnc1)C(=O)c1cc(-c2ccnc3[nH]ccc23)c[nH]1 [compound 370]
< 500 | < 500 | < 500 |  |  |  | CN(CC(F)(F)F)C(=O)c1cc(-c2ccnc3[nH]ccc23)c[nH]1 [compound 376]
 |  |  | 500 to 5000 | 500 to 5000 | 500 to 5000 | COc1cccc(CNc2cccc(-c3ccnc4[nH]ccc34)n2)c1 [compound 73, N-(3-Methoxybenzyl)-6-(1H-pyrrolo[2,3-b]pyridin-4-yl)pyridin-2-anine]
< 500 | < 500 | < 500 |  |  |  | CCCCN(CCC#N)C(=O)c1cc(-c2ccnc3[nH]ccc23)c[nH]1 [compound 303]
< 500 | < 500 | 500 to 5000 |  |  |  | CCCN(CCC#N)C(=O)c1cc(-c2c(Cl)cnc3[nH]ccc23)c[nH]1 [compound 335]
< 500 | < 500 | 500 to 5000 |  |  |  | CCCS(=O)(=O)N1CCCC(Nc2c(Cl)cnc3[nH]ccc23)C1 (stereo not drawn) [compound 177]
< 500 | < 500 | 500 to 5000 |  |  |  | COC(=O)N1CC[C@@H](Nc2c(Cl)cnc3[nH]ccc23)C1 [compound 170]
500 to 5000 | < 500 | 500 to 5000 |  |  |  | CCNC(=O)c1ccc(-c2ccnc3[nH]ccc23)cc1 [compound 273]
< 500 | < 500 | < 500 |  |  |  | O=C(Nc1ccccc1)c1cc(-c2ccnc3[nH]ccc23)c[nH]1 [compound 275]
 |  |  | 500 to 5000 | < 500 | < 500 | c1cc(-c2ccoc2)c2cc[nH]c2n1 [compound 133, 4-Furan-3-yl-1H-pyrrolo[2,3-b]pyridine]
< 500 | < 500 | > 4000 |  |  |  | COc1ccc(OC)c(Nc2c(Cl)cnc3[nH]ccc23)c1 [compound 154]
< 500 | < 500 | < 500 |  |  |  | CCCN(CCC#N)C(=O)c1cc(-c2c(F)cnc3[nH]ccc23)c[nH]1 [compound 396]
 |  |  | 500 to 5000 | 500 to 5000 | 500 to 5000 | O=C(c1cccc(-c2ccnc3[nH]ccc23)c1)N1CCOCC1 [compound 94, Morpholin-4-yl-[3-(1H-pyrrolo[2,3-b]pyridin-4-yl)-phenyl]-methanone]
> 5000 | 500 to 5000 | 500 to 5000 |  |  |  | CCOc1ccc(Cl)cc1-c1ccnc2[nH]ccc12 [compound 237]
500 to 5000 | 500 to 5000 | < 500 |  |  |  | Clc1cccc(-c2ccnc3[nH]ccc23)c1Cl [compound 224]
< 500 | < 500 | < 500 |  |  |  | Clc1cnc2[nH]ccc2c1NC1CCCCCC1 [compound 149]
< 500 | < 500 | > 4000 |  |  |  | CN(CCc1ccccn1)C(=O)c1cc(-c2c(Cl)cnc3[nH]ccc23)c[nH]1 [compound 351]
 |  |  | 500 to 5000 | < 500 | < 500 | O=C(CC(F)(F)F)N1CC=C(c2ccnc3[nH]ccc23)CC1 [compound 65]
 |  |  | > 5000 | > 5000 | 500 to 5000 | COC(=O)c1ccccc1-c1ccnc2[nH]ccc12 [compound 117]
 |  |  | 500 to 5000 | 500 to 5000 | 500 to 5000 | CC(=O)N1CCN(c2cccc(-c3ccnc4[nH]ccc34)n2)CC1 [compound 26, 1-(4-(6-(1H-pyrrolo[2,3-b]pyridin-4-yl)pyridin-2-yl)piperazin-1-yl)ethanone]
< 500 | < 500 | 500 to 5000 |  |  |  | N#CCC(=O)N1CC[C@@H](Nc2c(Cl)cnc3[nH]ccc23)C1 [compound 190]

Ki (JAK3; [1]) [nM] | Ki (JAK2; [1]) [nM] | Ki (ROCK I; [1]) [nM] | Ki (JAK3; enzyme inhibition, Table 5) [nM] | Ki (JAK2; enzyme inhibition, Table 5) [nM] | Ki (ROCK I; [2]) [nM] | SMILES
< 500 | < 500 | < 500 |  |  |  | CCN(CCC#N)C(=O)c1ccc(-c2ccnc3[nH]ccc23)s1 [compound 314]
< 500 | < 500 | < 500 |  |  |  | CCCN(CC(F)(F)F)C(=O)c1cc(-c2c(F)cnc3[nH]ccc23)c[nH]1 [compound 388]
< 500 | < 500 | < 500 |  |  |  | CCC(CC)NC(=O)c1cc(-c2ccnc3[nH]ccc23)c[nH]1 [compound 284]
 |  |  | < 500 | < 500 | < 500 | CC(=O)Nc1ccc(-c2ccnc3[nH]ccc23)cc1 [compound 43, N-[4-(1H-Pyrrolo[2,3-b]pyridin-4-yl)-phenyl]-acetamide]
500 to 5000 | < 500 | > 4000 |  |  |  | COC(=O)N1CC[C@H](Nc2c(Cl)cnc3[nH]ccc23)C1 [compound 166]
< 500 | 500 to 5000 | > 4000 |  |  |  | O=C(O)c1cc(-c2ccnc3[nH]ccc23)c[nH]1 [compound 274]
< 500 | < 500 | 500 to 5000 |  |  |  | Cc1ccc(-c2c(Cl)cnc3[nH]ccc23)s1 [compound 140]
500 to 5000 | 500 to 5000 | > 4000 |  |  |  | O=C(CCNc1nc(-c2ccnc3[nH]ccc23)nc2ccccc12)NCC(F)(F)F [compound 197]
500 to 5000 | 500 to 5000 | 500 to 5000 |  |  |  | CCOC(=O)[C@@H]1[C@@H](C)CCN1C(=O)c1csc(-c2ccnc3[nH]ccc23)n1 [compound 422]
500 to 5000 | < 500 | < 500 |  |  |  | CC(C)CN(CC(C)C)C(=O)c1ccc(-c2ccnc3[nH]ccc23)s1 [compound 327]
 |  |  | 500 to 5000 | < 500 | < 500 | CN(CC(O)c1ccccc1)c1cccc(-c2ccnc3[nH]ccc23)n1 (stereo not drawn) [compound 55, 2-(N-(6-(1H-pyrrolo[2,3-b]pyridin-4-yl)pyridin-2-yl)-N-methylamino)1-phenylethanol]
 |  |  | 500 to 5000 | 500 to 5000 | 500 to 5000 | CNC(=O)c1cccc(-c2ccnc3[nH]ccc23)c1 [compound 91, N-Methyl-3-(1H-pyrrolo[2,3-b]pyridin-4-yl)-benzamide]
 |  |  | 500 to 5000 | 500 to 5000 | 500 to 5000 | Clc1cc(-c2ccnc3[nH]ccc23)ccn1 [compound 39, 4-(2-Chloro-pyridin-4-yl)-1H-pyrrolo[2,3-b]pyridine]
< 500 | < 500 | < 500 |  |  |  | C[C@@H]1CC[C@@H](C)N1C(=O)c1csc(-c2ccnc3[nH]ccc23)n1 [compound 416]
< 500 | < 500 | < 500 |  |  |  | O=C(NCC1CC1)c1cc(-c2ccnc3[nH]ccc23)c[nH]1 [compound 286]
 |  |  | 500 to 5000 | > 5000 | 500 to 5000 | O=C(c1cccc(-c2ccnc3[nH]ccc23)c1)N1CCCCC1 [compound 93, Piperidin-1-yl-[3-(1H-pyrrolo[2,3-b]pyridin-4-yl)-phenyl]-methanone]
500 to 5000 | 500 to 5000 | 500 to 5000 |  |  |  | COc1ccc(Cl)cc1-c1ccnc2[nH]ccc12 [compound 235]
< 500 | < 500 | < 500 |  |  |  | Clc1cnc2[nH]ccc2c1N[C@@H]1C[C@H]2CC[C@@H]1C2 [compound 150]
< 500 | < 500 | < 500 |  |  |  | CN(CC(F)(F)F)C(=O)c1cc(-c2c(F)cnc3[nH]ccc23)c[nH]1 [compound 393]
< 500 | < 500 | < 500 |  |  |  | N#CCCN(Cc1ccccc1)C(=O)c1ccc(-c2ccnc3[nH]ccc23)s1 [compound 328]
